According to US5116832A, “Penem derivatives production and use thereof” (Suntory Limited, priority 1986, dated 1992):

Assays:
[1] = biological target: T1, purified human renal dehydropeptidase (Homo sapiens, UniProt P16444); test: Stability test against renal dehydropeptidase; assay type: in vitro ADME; conditions: for half-life at 100 µM: human, purified renal dehydropeptidase, pH 7
T1 sequence (P16444 17-411): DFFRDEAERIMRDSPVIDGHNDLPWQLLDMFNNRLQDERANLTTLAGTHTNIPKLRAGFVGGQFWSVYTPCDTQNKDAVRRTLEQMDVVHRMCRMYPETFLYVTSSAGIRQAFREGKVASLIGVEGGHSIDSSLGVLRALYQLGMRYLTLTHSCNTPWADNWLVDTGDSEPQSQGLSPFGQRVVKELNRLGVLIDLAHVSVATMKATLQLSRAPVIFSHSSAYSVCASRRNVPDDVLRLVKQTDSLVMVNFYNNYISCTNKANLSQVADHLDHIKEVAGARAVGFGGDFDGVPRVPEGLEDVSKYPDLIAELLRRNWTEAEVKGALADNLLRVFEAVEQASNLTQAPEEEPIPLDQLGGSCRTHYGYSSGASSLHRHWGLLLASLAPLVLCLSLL
Experimental: Method: 0.325 μ/ml (final concentration) of purified human renal dehydropeptidase and 100 μM (final concentration) of each test compound were heated to 37° C. in 50 mM of Tris/HCl buffer (pH 7.0) and samples were collected at planned hours. Remaining amounts of the compound in the samples were analyzed quantitatively and the half-life period of each compound was calculated.

[2] = system: E. coli KC-14; test: Therapeutic effect on the experimental infection in mice (E. coli KC-14); assay type: in vivo; conditions: Escherichia coli, E. coli KC-14 4.8 × 10^5 colony forming unit intraperitoneally, survival 5 days later, male ICR mice
Experimental: Among the novel compounds as obtained according to the present ivention, the compound (27) was used to carry out a therapy experiment with infected animals. With male mice of ICR strain (5-weeks aged, weighing from 23 to 27 g) being employed as an experimental animal, E. coli KC-14 was inoculate intraperitoneally to the mice, and, 2 hours later, the compound (27) was administered subcutaneously or orally.

[3] = system: S. aureus Smith; test: Therapeutic effect on the experimental infection in mice (S. aureus Smith); assay type: in vivo; conditions: Staphylococcus aureus, sc, 120 h, S. aureus Smith 3.8 × 10^6 colony forming unit, compound subcut.
[4] = Acute toxicity test; conditions: mouse, in vivo
Excerpt: Among the novel compounds as obtained according to the present invention, the compound (27) was selected to conduct an acute toxicity test. Mice of ICR strain (4-weeks aged), being used as an experimental animal, were given the compound through oral and intravenous routes.

SMILES | half-life at 100 µM [1] [h] | Remaining amount after 9 hours ([1]; 100 μM test compound, human renal dehydropeptidase, 37° C., 50 mM Tris/HCl buffer pH 7.0, 9 hours) [µg/mL] | stability against renal dehydropeptidase (in words) [1] | ED50 ([2]; KC14, 120 h, compound oral 2 hours later) [mg/kg] | ED50 ([2]; KC14, ip, 120 h, compound subcut. 2 hours later) [mg/kg] | ED50 [3] [mg/kg] | survival in acute toxicity test ([4]; iv) | survival in acute toxicity test ([4]; po)
CCSC1=C(C(=O)O)N2C(=O)[C@H]([C@@H](C)O)[C@H]2S1 [Sch 29482] | 1.44 | – | – | – | – | – | – | –
C[C@@H](O)[C@H]1C(=O)N2C(C(=O)O)=C(SCCN=CN)C[C@H]12 [Imipenem] | 3.02 | 14.7 | – | – | – | – | – | –
C[C@@H](O)[C@H]1C(=O)N2C(C(=O)O)=C(CC3CCOC3)S[C@H]12 (stereo partly shown) [Compound 27] | 3.81 | – | more stable than Sch 29482 and Imipenem | 9.5 | 3 | 1.11 | all found to survive | all found to survive
